Assay [1] relates to JAK2/STAT5. Kind of assay: JAK2/STAT5 phosphorylation in vivo models. Set-up: species or system mice. To be noted: after 8 hours of treatment. The procedure:
(§1) Cells for Western Blotting and ELISA were lysed with RIPA buffer. […]
(§2) For assessing pJAK2 levels, an ELISA assay (Tyr1007/1008, Invitrogen) was applied because of cross-reactivity of all pJAK2 antibodies tested. Interleukin-8 levels in RIPA lysates, cell culture supernatants and mouse tail vein blood plasma were measured by ELISA, as well (Biolegend). […]
SCID/beige, SCID/NOD and Balb/c mice (Jackson Labs) were maintained under specific pathogen-free conditions and were used in compliance with protocols approved by the Institutional Animal Care and Use Committees of the FMI, which conform to institutional and national regulatory standards on experimental animal usage. […] Tumors were measured every 3 to 4 days with vernier calipers, and tumor volumes were calculated by the formula 0.5×(larger diameter)×(smaller diameter)^2. End point tumor sizes were analyzed for synergism using the formula AB/C<A/C×B/C, where C=tumor volume VHC, A=tumor volume compound 1, B=tumor volume compound 2, AB=tumor volume combination (Clarke, 1997). […]

The next assay deals with pSTAT3. Kind of assay: pSTAT3 levels on treatment. In kind it is cell-based. To be noted: BEZ235 treatment. The procedure:
Cells for Western Blotting and ELISA were lysed with RIPA buffer. Xenograft lysates were prepared by lysing kryo-homogenized tumor powder in RIPA buffer (50 mM Tris-HCl pH 8, 150 mM NaCl, 1% NP-40, 0.5% sodium deoxycholate, 0.1% SDS. RIPA was supplemented with 1× protease inhibitor cocktail (Complete Mini, Roche), 0.2 mmol/L sodium-vanadate, 20 mM sodium fluoride and 1 mmol/L phenylmethylsulfonyl fluoride. For IRS-1 immunoprecipitation, cell lysates containing 500-1000 μg of protein were incubated with 1 μg of antibody and 20-50 μl of protein A-Sepharose beads (Zymed Laboratories, Inc., South San Francisco, Calif.) overnight at 4° C. Immunoprecipitates or whole cell lysates (30-80 μg) were subjected to SDS-PAGE, transferred to PVDF membranes (Immobilon-P, Millipore) and blocked for 1 hr at room temperature with 5% milk in PBS-0.1% Tween 20. […]
(§3) The present inventors applied single doses of COMPOUND A, a dual PI3K and mTOR inhibitor, and analyzed target inhibition and potential signaling pathway crosstalks after 2, 4, 8 and 20 h hours of treatment. […] While RAD001 readily activated JAK2 starting at 4 hours of treatment, they observed a later response with BKM120 treatment starting at 8 hours after adding the compound. […]

The next assay concerns pS6. Kind of assay: Target inhibition after single doses: pS6 levels in breast cancer lines. In kind it is cell-based, human. To be noted: up to 20 hours after treatment, MDA 468, MDA 231 LM2 and mouse 4T-1 breast cancer lines. The procedure: (§4) MDA231, lung metastatic subline MDA231 LM2 (Minn et al., 2005) and SUM159 human breast cancer cells, as well as the Balb/c tumor-derived mammary cancer lines 4T-1 and 168FARN (Aslakson and Miller, 1992), were propagated as previously described. All other cell lines were obtained from and were cultured according to the protocols of ATCC. For treatment with inhibitors, cells were synchronized without serum overnight and then supplemented with culture medium containing the inhibitor(s). For experiments with doxycycline-inducible shRNAs, 500 ng/ml of doxycycline (Sigma) was added to the medium and experiments performed 48 h later. Cell viability assays, cell cycle and cell death measurements were performed at 0.5% FCS in order to avoid masking effects of growth factors present under full-serum conditions.
as §1, §3

In assay [2] the test system is JAK2/STAT5. Kind of assay: JAK2/STAT5 phosphorylation in breast cancer cell lines (pJAK2 ELISA, pSTAT5 immunoblot). To be noted: in vitro, after 4 hours-8 hours of treatment. In kind it is cell-based, human. As to the method: as §4
Cells for Western Blotting and ELISA were lysed with RIPA buffer. Xenograft lysates were prepared by lysing kryo-homogenized tumor powder in RIPA buffer (50 mM Tris-HCl pH 8, 150 mM NaCl, 1% NP-40, 0.5% sodium deoxycholate, 0.1% SDS. RIPA was supplemented with 1× protease inhibitor cocktail (Complete Mini, Roche), 0.2 mmol/L sodium-vanadate, 20 mM sodium fluoride and 1 mmol/L phenylmethylsulfonyl fluoride. For IRS-1 immunoprecipitation, cell lysates containing 500-1000 μg of protein were incubated with 1 μg of antibody and 20-50 μl of protein A-Sepharose beads (Zymed Laboratories, Inc., South San Francisco, Calif.) overnight at 4° C. Immunoprecipitates or whole cell lysates (30-80 μg) were subjected to SDS-PAGE, transferred to PVDF membranes (Immobilon-P, Millipore) and blocked for 1 hr at room temperature with 5% milk in PBS-0.1% Tween 20. Membranes were then incubated overnight with antibodies as indicated and exposed to secondary HRP-coupled anti-mouse or -rabbit antibody at 1:5-10,000 for 1 h at room temperature. Proteins were visualized using an ECL kit (Amersham) or an enhanced chemiluminescence detection system (Pierce Biotechnology). In each of the studies presented, the results shown are typical of at least three independent experiments. The following antibodies were used: anti-JAK2 (Cell Signaling), anti-JAK1 (Cell Signaling), anti-pSTAT5 (Tyr694, Cell Signaling), anti-STAT5 (STAT5A&B, Cell Signaling), anti-STAT3 (Cell Signaling), anti-pSTAT3 (Tyr705, Cell Signaling), anti-AKT pan (Cell Signaling), anti-pAKT (Thr308 and Ser473, Cell Signaling), anti-ERK2 (Santa Cruz), anti-S6 (Cell Signaling), anti-pS6 (Ser235/236, Cell Signaling), anti-PARP (Cell Signaling), anti-MCL1 (Cell Signaling), anti-BIM (EL, L and S isoforms, Cell Signaling), anti-pIGF1R/plnsR (Invitrogen), anti-IGF1Rbeta (Cell Signaling), anti-InsRbeta (Santa Cruz), anti-IRS1 (Upstate), anti-plRS1 (Tyr612, Calbiochem).
as §2, §3
Background: An ELISA detects its analyte on a solid surface through an enzyme-linked reagent.

Consider `Cn1c(=O)n(-c2ccc(C(C)(C)C#N)cc2)c2c3cc(-c4cnc5ccccc5c4)ccc3ncc21` [COMPOUND A, 2-methyl-2-[4-(3-methyl-2-oxo-8-quinolin-3-yl-2,3-dihydro-imidazo[4,5-c]quinolin-1-yl)-phenyl]-propionitrile], for which the pJAK2 entry with JAK2/STAT5 [1] and in the assay with JAK2/STAT5 [2] was “considerable upregulation” in each case. Also, the pSTAT5 entry with JAK2/STAT5 [1] and in the assay on JAK2/STAT5 [2] was “considerable upregulation” in each case. The “Levels of pSTAT3” value in the assay with pSTAT3 is “largely unaffected”. Moreover, the pS6 levels entry with pS6 is on record as “completely blocked”.

The values above are taken from patent US20150224190A1, “Combination of a phosphoinositide 3-kinase inhibitor and an inhibitor of the IL-8/CXCR interaction” (priority 2012, published 2015).
